Patent US4065570A (priority 1975, dated 1977)
Like-named read-outs stand apart in the source and are kept apart here.

Assays:
Polio I = assay: organism not typed; assay type: cell-based; settings: Vero
Echo 11 = assay type: cell-based; settings: Echo 11, Primary Monkey Kidney Cells, 178 TCID50
Protocol: (§1) In preparing the compounds for testing, they were handled aseptically throughout. The compounds were dissolved in a minimum amount of a suitable solvent, and the final dilutions were made up to the required volume in a complete culture medium in a concentration not exceeding the predetermined maximum non-cytotoxic levels.
(§2) The cell cultures used in all primary in vitro antipicorna virus screening tests were an established cell line of the African green monkey kidney (VERO), a primary cell culture of the Cercopythecus monkey kidney, or human embryonic lung diploid cells WI-38.
(§3) Standard batches of the viruses were made by growing the virus in an appropriate cell culture and then making a pool which was dispersed in ampoules and kept frozen at -76° C until used. The titer of each virus was determined in the cell cultures used.
(§4) The cells were grown in test tubes in a suitable medium. Immediately before use the initial medium was replaced with the one which contained the test compound in an appropriate concentration. After the virus was added, the infected culture was incubated at 37° C for a number of days and the cytopathic effect of the virus observed and recorded. The results were read every day in all of the tubes and the destruction of cells assessed in precentage of the cell sheet destroyed: 0-25-50-75-100%. As controls, cells with only virus (for cytopathic effect) or with only the compound (for cytotoxic effect) were used as well as the normal, uninfected cells (no cytotoxic -- no cytopathic effects).
(§5) Net difference in cytopathic effect between treated and control tubes expressed in percentage give the extent of the inhibitory activity of the substance.
(§6) The TCID50 represents the tissue culture infective dose of virus that will destroy 50% of the cells.

Echo 9 = assay type: cell-based; settings: Echo 9, Vero, 31.6 TCID50
Protocol: as §1, §2, §3, §4, §5, §6

Vero cells = assay: cytotoxicity against Vero cells; assay type: cell-based, African green monkey; settings: for Toxicity (%): Vero
Protocol: as §1, §2
(§7) The cytotoxic stuides were performed on each of the compounds to determine the level of response of the cells used to the potentially toxic action of the substances.
as §4

[1] = tested on: primary monkey kidney cells; assay: cytotoxicity against primary monkey kidney cells; assay type: cell-based, Cercopythecus monkey; settings: for Toxicity (%): pMK
Protocol: as §1, §2, §7, §4

mice = assay: LD50 in mice; assay type: in vivo
[2] = tested on: Mahoney strain of Polio virus; assay type: in vivo, Cynomolgus monkey
[3] = tested on: viruses of the Picorna group; assay: antiviral activity (general statements); assay type: cell-based; settings: result in words
Protocol: The in vitro activity of representative compounds of the present invention are set forth below.
as §1, §2, §4, §5

Cynomolgus monkeys = settings: cynomolgus monkey, in vivo, 25 mg/kg/day
[4] = Virus + Substance, 25 mg/kg/day, i.p. or s.c.
[5] = Virus + Substance, 25 mg/kg/day, 4th Day
[6] = Virus + Substance, 25 mg/kg/day, 8th Day
[7] = Virus + Substance, 25 mg/kg/day, 11th Day
[8] = Virus + Substance, 25 mg/kg/day, 15th Day

Acetylated 5-(3',4',-Dimethoxybenzal) hydantoin [Example 14]
% Inhibition (Polio I; 316 TCID50, 0.5 μg/ml): 93% | % Inhibition (Polio I; 316 TCID50, 1 μg/ml): 100% | % Inhibition (Polio I; 316 TCID50, 5 μg/ml): 100% | % Inhibition (Polio I; 316 TCID50, 10 μg/ml): 100% | % Inhibition (Echo 11; 0.1 μg/ml): 7% | % Inhibition (Echo 11; 0.3 μg/ml): 32% | % Inhibition (Echo 11; 0.7 μg/ml): 32% | % Inhibition (Echo 11; 1.0 μg/ml): 68% | % Inhibition (Echo 11; 3.3 μg/ml): 100% | % Inhibition (Echo 11; 6.7 μg/ml): 100% | % Inhibition (Echo 11; 10 μg/ml): 100% | % Inhibition (Echo 11; 25 μg/ml): 100% | % Inhibition (Echo 11; 50 μg/ml): 100% | % Inhibition (Echo 11; 100 μg/ml): 100% | % Inhibition (Echo 9; 0.1 μg/ml): 8% | % Inhibition (Echo 9; 0.3 μg/ml): 29% | % Inhibition (Echo 9; 0.7 μg/ml): 42% | % Inhibition (Echo 9; 1.0 μg/ml): 71% | % Inhibition (Echo 9; 3.3 μg/ml): 92% | % Inhibition (Echo 9; 6.7 μg/ml): 100% | % Inhibition (Echo 9; 10.0 μg/ml): 100% | Cytotoxicity CTD50 (Vero cells; Vero cells, 50% inhibition of the cell growth): > 100 µg/mL | Cytotoxicity CTD0 (Vero cells; Vero cells, maximal non-toxic concentration): > 10 µg/mL | Toxicity (%) (Vero cells; 0.1 micrograms/ml): 0% | Toxicity (%) (Vero cells; 0.3 micrograms/ml): 0% | Toxicity (%) (Vero cells; 0.7 micrograms/ml): 0% | Toxicity (%) (Vero cells; 1.0 micrograms/ml): 0% | Toxicity (%) (Vero cells; 3.3 micrograms/ml): 0% | Toxicity (%) (Vero cells; 6.7 micrograms/ml): 0% | Toxicity (%) (Vero cells; 10 micrograms/ml): 10% | Toxicity (%) (Vero cells; 25 micrograms/ml): 10% | Toxicity (%) (Vero cells; 33.3 micrograms/ml): 10% | Toxicity (%) (Vero cells; 50 micrograms/ml): 10% | Toxicity (%) (Vero cells; 66.7 micrograms/ml): 10% | Toxicity (%) (Vero cells; 75 micrograms/ml): 10% | Toxicity (%) (Vero cells; 100 micrograms/ml): 10% | Toxicity (%) (Vero cells; 150 micrograms/ml): 10% | Toxicity (%) (Vero cells; 200 micrograms/ml): 25% | Toxicity (%) (Vero cells; 250 micrograms/ml): 75% | Toxicity (%) (Vero cells; 300 micrograms/ml): 100% | Cytotoxicity CTD50 ([1]; Primary Monkey Kidney Cells, 50% inhibition of the cell growth): > 100 µg/mL | Cytotoxicity CTD0 ([1]; Primary Monkey Kidney Cells, maximal non-toxic concentration): > 100 µg/mL | Toxicity (%) ([1]; 0.1 micrograms/ml): 0% | Toxicity (%) ([1]; 0.3 micrograms/ml): 0% | Toxicity (%) ([1]; 0.7 micrograms/ml): 0% | Toxicity (%) ([1]; 1.0 micrograms/ml): 0% | Toxicity (%) ([1]; 3.3 micrograms/ml): 0% | Toxicity (%) ([1]; 6.7 micrograms/ml): 0% | Toxicity (%) ([1]; 10 micrograms/ml): 0% | Toxicity (%) ([1]; 25 micrograms/ml): 0% | Toxicity (%) ([1]; 33.3 micrograms/ml): 0% | Toxicity (%) ([1]; 50 micrograms/ml): 0% | Toxicity (%) ([1]; 66.7 micrograms/ml): 0% | Toxicity (%) ([1]; 75 micrograms/ml): 0% | Toxicity (%) ([1]; 100 micrograms/ml): 0% | Toxicity (%) ([1]; 150 micrograms/ml): 10% | Toxicity (%) ([1]; 200 micrograms/ml): 75% | Toxicity (%) ([1]; 250 micrograms/ml): 100% | Toxicity (%) ([1]; 300 micrograms/ml): 100% | subacute LD50 (mice; intraperitoneal, daily injection during 16 days): 400 to 500 mg/kg | LD50 (mice; oral administration): greater than 1,300 mg/kg | effectiveness against the Mahoney Polio virus strain in the infected animals ([2]; Cynomolgus monkeys, result in words): effective against the Mahoney Polio virus strain in the infected animals | Average Day of Paralysis [2, 4]: 13.5 | Cumulative morbidity, paralyses, % [2, 4]: 25.0% | Cumulative morbidity, paralyses, No. [2, 4]: 2/8 | Histopathological changes as brain, % [2, 4]: 20.0% | Histopathological changes as brain, No. [2, 4]: 2/10 | Presence of poliovirus in rectal, % [2, 5]: 36.4% | Presence of poliovirus in rectal, No. [2, 5]: 4/11 | Presence of poliovirus in rectal, % [2, 6]: 25.0% | Presence of poliovirus in rectal, No. [2, 6]: 2/8 | Presence of poliovirus in rectal, % [2, 7]: 25.0% | Presence of poliovirus in rectal, No. [2, 7]: 2/8 | Presence of poliovirus in rectal, % [2, 8]: 16.7% | Presence of poliovirus in rectal, No. [2, 8]: 1/6 | degree of antiviral activity [3]: greater degree of antiviral activity than the unacetylated compound | Cumulative morbidity, paralyses, % (Cynomolgus monkeys): 0% | Cumulative morbidity, paralyses, No. (Cynomolgus monkeys): 0/5 | Histopathological changes as brain, % (Cynomolgus monkeys): 0% | Histopathological changes as brain, No. (Cynomolgus monkeys): 0/5
